Experimental data taken from ChEMBL document CHEMBL1132573, “Novel antitumor 2-cyanoaziridine-1-carboxamides” (J Med Chem, 1999).
pIC50: −log10 of the molar value.

These molecules were tested on RPMI-8226 (assay: Inhibition of cell growth in drug sensitive 8226 myeloma cell line). Conditions: Homo sapiens.
Type: functional, cell-based

Structure (SMILES)	pIC50
COC(=O)c1ccccc1NC(=O)N1CC1C#N (stereo not drawn)	< 4.41
N#CC1CN1C(=O)Nc1ccc(C(F)(F)F)cc1 (stereo not drawn)	5.09
N#CC1CN1C(=O)Nc1ccc([N+](=O)[O-])cc1 (stereo not drawn)	5.04
CCOC(=O)c1ccc(NC(=O)N2CC2C#N)cc1 (stereo not drawn)	5.52
CC(C)(C)NC(=O)N1CC1C#N (stereo not drawn)	3.92
N#CC1CN1C(=O)NCc1ccccc1 (stereo not drawn)	5.05
CCNC(=O)N1CC1C#N (stereo not drawn)	4.66
N#CC1CN1C(=O)NC1CCCCC1 (stereo not drawn)	4.44
CCCCNC(=O)N1CC1C#N (stereo not drawn)	4.77

These molecules were tested on WiDr (assay: Inhibition of cell growth in drug sensitive WiDr colon cell line). Conditions: Homo sapiens.
Type: functional, cell-based

Structure (SMILES)	pIC50
COC(=O)c1ccccc1NC(=O)N1CC1C#N (stereo not drawn)	4.40
N#CC1CN1C(=O)Nc1ccc(C(F)(F)F)cc1 (stereo not drawn)	5.89
N#CC1CN1C(=O)Nc1ccc([N+](=O)[O-])cc1 (stereo not drawn)	5.37
CCOC(=O)c1ccc(NC(=O)N2CC2C#N)cc1 (stereo not drawn)	5.60
CC(C)(C)NC(=O)N1CC1C#N (stereo not drawn)	3.74
N#CC1CN1C(=O)NCc1ccccc1 (stereo not drawn)	5.28
CCNC(=O)N1CC1C#N (stereo not drawn)	5.40
N#CC1CN1C(=O)NC1CCCCC1 (stereo not drawn)	5.62
CCCCNC(=O)N1CC1C#N (stereo not drawn)	4.85

These molecules were tested on MCF7 (assay: Inhibition of cell growth in drug sensitive MCF-7 breast cell line). Conditions: Homo sapiens.
Type: functional, cell-based

Structure (SMILES)	pIC50
COC(=O)c1ccccc1NC(=O)N1CC1C#N (stereo not drawn)	< 4.80
N#CC1CN1C(=O)Nc1ccc(C(F)(F)F)cc1 (stereo not drawn)	5.82
N#CC1CN1C(=O)Nc1ccc([N+](=O)[O-])cc1 (stereo not drawn)	5.52
CCOC(=O)c1ccc(NC(=O)N2CC2C#N)cc1 (stereo not drawn)	5.64
CC(C)(C)NC(=O)N1CC1C#N (stereo not drawn)	< 3.52
N#CC1CN1C(=O)NCc1ccccc1 (stereo not drawn)	5.13
CCNC(=O)N1CC1C#N (stereo not drawn)	4.54
N#CC1CN1C(=O)NC1CCCCC1 (stereo not drawn)	4.89
CCCCNC(=O)N1CC1C#N (stereo not drawn)	< 4.92

What follows are molecules tested on MCF7 (assay: Inhibition of cell growth in (MCF7 breast) dox cell line). Conditions: Homo sapiens.
Type: functional, cell-based

Structure (SMILES)	pIC50
COC(=O)c1ccccc1NC(=O)N1CC1C#N (stereo not drawn)	< 4.80
N#CC1CN1C(=O)Nc1ccc(C(F)(F)F)cc1 (stereo not drawn)	5.85
N#CC1CN1C(=O)Nc1ccc([N+](=O)[O-])cc1 (stereo not drawn)	5.52
CCOC(=O)c1ccc(NC(=O)N2CC2C#N)cc1 (stereo not drawn)	5.68
CC(C)(C)NC(=O)N1CC1C#N (stereo not drawn)	3.72
N#CC1CN1C(=O)NCc1ccccc1 (stereo not drawn)	5.22
CCNC(=O)N1CC1C#N (stereo not drawn)	4.70
N#CC1CN1C(=O)NC1CCCCC1 (stereo not drawn)	5.05
CCCCNC(=O)N1CC1C#N (stereo not drawn)	5.17

The molecules below were run on OVCAR-3 (assay: Inhibition of cell growth in (OVCAR-3) ovarian cell line). Conditions: Homo sapiens.
Type: functional, cell-based

Structure (SMILES)	pIC50
COC(=O)c1ccccc1NC(=O)N1CC1C#N (stereo not drawn)	< 4.41
N#CC1CN1C(=O)Nc1ccc(C(F)(F)F)cc1 (stereo not drawn)	5.23
N#CC1CN1C(=O)Nc1ccc([N+](=O)[O-])cc1 (stereo not drawn)	5.19
CCOC(=O)c1ccc(NC(=O)N2CC2C#N)cc1 (stereo not drawn)	5.11
CC(C)(C)NC(=O)N1CC1C#N (stereo not drawn)	3.73
N#CC1CN1C(=O)NCc1ccccc1 (stereo not drawn)	5.30
CCNC(=O)N1CC1C#N (stereo not drawn)	4.85
N#CC1CN1C(=O)NC1CCCCC1 (stereo not drawn)	4.51
CCCCNC(=O)N1CC1C#N (stereo not drawn)	4.92

Each molecule was assayed on L1210 (assay: Inhibition of cell growth in drug sensitive L1210 leukemia cell line determined by MTT assay). Conditions: Mus musculus.
Type: functional, cell-based

Structure (SMILES)	pIC50
COC(=O)c1ccccc1NC(=O)N1CC1C#N (stereo not drawn)	< 4.41
N#CC1CN1C(=O)Nc1ccc(C(F)(F)F)cc1 (stereo not drawn)	5.11
N#CC1CN1C(=O)Nc1ccc([N+](=O)[O-])cc1 (stereo not drawn)	5.59
CCOC(=O)c1ccc(NC(=O)N2CC2C#N)cc1 (stereo not drawn)	5.01
CC(C)(C)NC(=O)N1CC1C#N (stereo not drawn)	3.88
N#CC1CN1C(=O)NCc1ccccc1 (stereo not drawn)	5.42
CCNC(=O)N1CC1C#N (stereo not drawn)	4.85
N#CC1CN1C(=O)NC1CCCCC1 (stereo not drawn)	5.13
CCCCNC(=O)N1CC1C#N (stereo not drawn)	4.92

What follows are molecules tested on A549 (assay: Inhibition of cell growth in (A-549) lung cell line). Conditions: Homo sapiens.
Type: functional, cell-based

Structure (SMILES)	pIC50
COC(=O)c1ccccc1NC(=O)N1CC1C#N (stereo not drawn)	< 4.39
N#CC1CN1C(=O)Nc1ccc(C(F)(F)F)cc1 (stereo not drawn)	5.37
N#CC1CN1C(=O)Nc1ccc([N+](=O)[O-])cc1 (stereo not drawn)	5.41
CCOC(=O)c1ccc(NC(=O)N2CC2C#N)cc1 (stereo not drawn)	5.54
CC(C)(C)NC(=O)N1CC1C#N (stereo not drawn)	3.74
N#CC1CN1C(=O)NCc1ccccc1 (stereo not drawn)	5.13
CCNC(=O)N1CC1C#N (stereo not drawn)	4.74
N#CC1CN1C(=O)NC1CCCCC1 (stereo not drawn)	5.00
CCCCNC(=O)N1CC1C#N (stereo not drawn)	4.74

The molecules below were run on A-375 (assay: Inhibition of cell growth in (A375) melan cell line). Conditions: Homo sapiens.
Type: functional, cell-based

Structure (SMILES)	pIC50
COC(=O)c1ccccc1NC(=O)N1CC1C#N (stereo not drawn)	< 4.41
N#CC1CN1C(=O)Nc1ccc(C(F)(F)F)cc1 (stereo not drawn)	4.93
N#CC1CN1C(=O)Nc1ccc([N+](=O)[O-])cc1 (stereo not drawn)	5.41
CCOC(=O)c1ccc(NC(=O)N2CC2C#N)cc1 (stereo not drawn)	5.24
CC(C)(C)NC(=O)N1CC1C#N (stereo not drawn)	3.38
N#CC1CN1C(=O)NCc1ccccc1 (stereo not drawn)	4.96
CCNC(=O)N1CC1C#N (stereo not drawn)	4.44
N#CC1CN1C(=O)NC1CCCCC1 (stereo not drawn)	4.46
CCCCNC(=O)N1CC1C#N (stereo not drawn)	4.82

What follows are molecules tested on RPMI-8226 (assay: Inhibition of cell growth in drug resistant 8226 myeloma cell line). Conditions: Homo sapiens.
Type: functional, cell-based

Structure (SMILES)	pIC50
COC(=O)c1ccccc1NC(=O)N1CC1C#N (stereo not drawn)	< 4.41
N#CC1CN1C(=O)Nc1ccc(C(F)(F)F)cc1 (stereo not drawn)	5.11
N#CC1CN1C(=O)Nc1ccc([N+](=O)[O-])cc1 (stereo not drawn)	5.07
CCOC(=O)c1ccc(NC(=O)N2CC2C#N)cc1 (stereo not drawn)	5.52
CC(C)(C)NC(=O)N1CC1C#N (stereo not drawn)	3.67
N#CC1CN1C(=O)NCc1ccccc1 (stereo not drawn)	4.96
CCNC(=O)N1CC1C#N (stereo not drawn)	4.59
N#CC1CN1C(=O)NC1CCCCC1 (stereo not drawn)	4.01
CCCCNC(=O)N1CC1C#N (stereo not drawn)	4.77

The molecules below were run on L1210 (assay: Inhibition of cell growth in (L1210 leukemia) MDR cells determined by MTT assay). Conditions: Mus musculus.
Type: functional, cell-based

Structure (SMILES)	pIC50
COC(=O)c1ccccc1NC(=O)N1CC1C#N (stereo not drawn)	< 4.41
N#CC1CN1C(=O)Nc1ccc(C(F)(F)F)cc1 (stereo not drawn)	5.15
N#CC1CN1C(=O)Nc1ccc([N+](=O)[O-])cc1 (stereo not drawn)	5.59
CCOC(=O)c1ccc(NC(=O)N2CC2C#N)cc1 (stereo not drawn)	5.01
CC(C)(C)NC(=O)N1CC1C#N (stereo not drawn)	3.34
N#CC1CN1C(=O)NCc1ccccc1 (stereo not drawn)	5.00
CCNC(=O)N1CC1C#N (stereo not drawn)	4.85
N#CC1CN1C(=O)NC1CCCCC1 (stereo not drawn)	4.80
CCCCNC(=O)N1CC1C#N (stereo not drawn)	4.92

What follows are molecules tested on MCF7 (assay: Inhibition of cell growth in (MCF7 breast) mitox cell line). Conditions: Homo sapiens.
Type: functional, cell-based

Structure (SMILES)	pIC50
COC(=O)c1ccccc1NC(=O)N1CC1C#N (stereo not drawn)	< 4.80
N#CC1CN1C(=O)Nc1ccc(C(F)(F)F)cc1 (stereo not drawn)	5.89
N#CC1CN1C(=O)Nc1ccc([N+](=O)[O-])cc1 (stereo not drawn)	5.52
CCOC(=O)c1ccc(NC(=O)N2CC2C#N)cc1 (stereo not drawn)	5.48
CC(C)(C)NC(=O)N1CC1C#N (stereo not drawn)	3.92
N#CC1CN1C(=O)NCc1ccccc1 (stereo not drawn)	5.47
CCNC(=O)N1CC1C#N (stereo not drawn)	5.00
N#CC1CN1C(=O)NC1CCCCC1 (stereo not drawn)	5.01
CCCCNC(=O)N1CC1C#N (stereo not drawn)	< 4.92

These molecules were tested on WiDr (assay: Inhibition of cell growth in drug resistant WiDr colon cell line). Conditions: Homo sapiens.
Type: functional, cell-based

Structure (SMILES)	pIC50
COC(=O)c1ccccc1NC(=O)N1CC1C#N (stereo not drawn)	< 4.39
N#CC1CN1C(=O)Nc1ccc(C(F)(F)F)cc1 (stereo not drawn)	5.24
N#CC1CN1C(=O)Nc1ccc([N+](=O)[O-])cc1 (stereo not drawn)	5.43
CCOC(=O)c1ccc(NC(=O)N2CC2C#N)cc1 (stereo not drawn)	5.38
CC(C)(C)NC(=O)N1CC1C#N (stereo not drawn)	< 3.52
N#CC1CN1C(=O)NCc1ccccc1 (stereo not drawn)	5.00
CCNC(=O)N1CC1C#N (stereo not drawn)	5.15
N#CC1CN1C(=O)NC1CCCCC1 (stereo not drawn)	4.92
CCCCNC(=O)N1CC1C#N (stereo not drawn)	4.74
